Source: ChEMBL document CHEMBL4316613, “Recent developments in the synthesis and applications of phosphinic peptide analogs” (Bioorg Med Chem Lett, 2019)
One block for each compound: values may come before it.

Key:
[1] = Inhibition of Neisseria meningitidis APN
Leucine aminopeptidase = target: T1, Leucine aminopeptidase (Plasmodium falciparum 3D7, UniProt Q8IL11); assay: Inhibition of Plasmodium falciparum LAP
T1 sequence (Q8IL11 whole entry): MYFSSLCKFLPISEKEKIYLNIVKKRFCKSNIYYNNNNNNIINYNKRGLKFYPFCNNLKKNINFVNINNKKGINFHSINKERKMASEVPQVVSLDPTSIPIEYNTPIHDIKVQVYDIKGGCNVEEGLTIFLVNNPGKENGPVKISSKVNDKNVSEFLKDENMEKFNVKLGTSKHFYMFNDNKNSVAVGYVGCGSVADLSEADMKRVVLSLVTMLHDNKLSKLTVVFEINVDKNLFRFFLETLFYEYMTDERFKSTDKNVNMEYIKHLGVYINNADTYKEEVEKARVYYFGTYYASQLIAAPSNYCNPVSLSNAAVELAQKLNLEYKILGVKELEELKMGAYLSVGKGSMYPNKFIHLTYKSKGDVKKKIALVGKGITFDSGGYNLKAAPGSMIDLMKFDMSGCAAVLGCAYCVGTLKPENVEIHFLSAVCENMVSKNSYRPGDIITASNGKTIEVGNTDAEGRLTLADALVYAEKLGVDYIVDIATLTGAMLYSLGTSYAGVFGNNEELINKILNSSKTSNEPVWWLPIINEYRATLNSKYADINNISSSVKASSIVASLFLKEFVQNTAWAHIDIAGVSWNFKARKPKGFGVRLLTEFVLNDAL

[2] = Inhibition of Plasmodium falciparum APN
[3] = target: T2, Leukotriene A-4 hydrolase (Homo sapiens, UniProt P09960); assay: Inhibition of human recombinant LTA4H by L-(4-benzoyl)phenylalanyl-beta-naphthylamide fluorigenic substrate by fluorescence based assay
T2 sequence (P09960 whole entry): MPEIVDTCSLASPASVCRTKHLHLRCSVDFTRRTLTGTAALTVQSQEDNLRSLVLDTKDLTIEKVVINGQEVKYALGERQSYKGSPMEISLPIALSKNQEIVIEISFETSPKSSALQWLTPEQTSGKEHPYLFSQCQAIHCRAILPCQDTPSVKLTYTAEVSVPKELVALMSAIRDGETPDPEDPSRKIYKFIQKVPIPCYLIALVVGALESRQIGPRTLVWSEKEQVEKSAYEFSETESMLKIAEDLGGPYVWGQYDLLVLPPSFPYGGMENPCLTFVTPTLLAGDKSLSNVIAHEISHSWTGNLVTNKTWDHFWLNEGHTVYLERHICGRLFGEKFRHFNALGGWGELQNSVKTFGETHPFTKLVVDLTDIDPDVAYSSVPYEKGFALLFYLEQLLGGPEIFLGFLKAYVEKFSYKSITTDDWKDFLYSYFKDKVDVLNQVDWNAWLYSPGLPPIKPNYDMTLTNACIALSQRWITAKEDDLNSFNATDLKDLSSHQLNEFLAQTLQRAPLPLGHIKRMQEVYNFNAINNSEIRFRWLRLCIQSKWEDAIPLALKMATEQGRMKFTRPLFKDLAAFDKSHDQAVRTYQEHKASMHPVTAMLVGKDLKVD

[4] = Inhibition of Helicobacter pylori Csd4
[5] = target: T3, Macrophage metalloelastase (Homo sapiens, UniProt P39900); assay: Inhibition of human MMP12
T3 sequence (P39900 whole entry): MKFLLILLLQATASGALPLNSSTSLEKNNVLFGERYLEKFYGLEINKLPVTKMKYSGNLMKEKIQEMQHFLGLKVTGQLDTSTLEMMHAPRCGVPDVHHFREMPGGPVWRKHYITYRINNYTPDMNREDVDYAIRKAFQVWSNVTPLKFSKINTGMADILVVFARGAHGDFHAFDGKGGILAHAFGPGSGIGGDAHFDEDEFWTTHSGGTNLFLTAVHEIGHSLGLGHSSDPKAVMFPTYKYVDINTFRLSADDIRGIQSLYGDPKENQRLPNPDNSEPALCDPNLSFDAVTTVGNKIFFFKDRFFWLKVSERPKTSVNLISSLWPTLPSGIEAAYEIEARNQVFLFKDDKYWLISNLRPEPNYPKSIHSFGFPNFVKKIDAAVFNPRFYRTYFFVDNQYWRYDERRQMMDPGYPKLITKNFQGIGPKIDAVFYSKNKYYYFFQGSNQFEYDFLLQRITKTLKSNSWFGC

Collagenase 3 = Collagenase 3 (Homo sapiens, UniProt P45452); assay: Inhibition of human MMP13 by photoaffinity probe based assay
[6] = target: T3, Macrophage metalloelastase; assay: Inhibition of human MMP12 by photoaffinity probe based assay
Neutrophil collagenase = Neutrophil collagenase (Homo sapiens, UniProt P22894); assay: Inhibition of human MMP8 by photoaffinity probe based assay
Chain of Neutrophil collagenase (P22894 whole entry): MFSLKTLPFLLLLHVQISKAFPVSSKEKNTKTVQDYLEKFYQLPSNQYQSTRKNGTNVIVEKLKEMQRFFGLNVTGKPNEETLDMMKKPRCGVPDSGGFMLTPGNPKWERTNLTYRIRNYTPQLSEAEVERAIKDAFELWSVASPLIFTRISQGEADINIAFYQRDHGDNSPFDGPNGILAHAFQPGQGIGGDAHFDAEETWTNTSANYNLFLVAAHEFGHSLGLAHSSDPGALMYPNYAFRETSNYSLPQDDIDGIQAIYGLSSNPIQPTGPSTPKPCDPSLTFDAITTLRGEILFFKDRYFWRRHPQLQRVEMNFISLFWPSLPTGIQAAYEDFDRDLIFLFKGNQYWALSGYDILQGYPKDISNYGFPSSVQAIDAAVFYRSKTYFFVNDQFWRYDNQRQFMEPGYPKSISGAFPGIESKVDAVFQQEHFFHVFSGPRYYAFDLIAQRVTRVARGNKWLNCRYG

[7] = target: Matrix metalloproteinase-9 (Homo sapiens, UniProt P14780); assay: Inhibition of human MMP9 by photoaffinity probe based assay
Chain of Matrix metalloproteinase-9 (P14780 whole entry): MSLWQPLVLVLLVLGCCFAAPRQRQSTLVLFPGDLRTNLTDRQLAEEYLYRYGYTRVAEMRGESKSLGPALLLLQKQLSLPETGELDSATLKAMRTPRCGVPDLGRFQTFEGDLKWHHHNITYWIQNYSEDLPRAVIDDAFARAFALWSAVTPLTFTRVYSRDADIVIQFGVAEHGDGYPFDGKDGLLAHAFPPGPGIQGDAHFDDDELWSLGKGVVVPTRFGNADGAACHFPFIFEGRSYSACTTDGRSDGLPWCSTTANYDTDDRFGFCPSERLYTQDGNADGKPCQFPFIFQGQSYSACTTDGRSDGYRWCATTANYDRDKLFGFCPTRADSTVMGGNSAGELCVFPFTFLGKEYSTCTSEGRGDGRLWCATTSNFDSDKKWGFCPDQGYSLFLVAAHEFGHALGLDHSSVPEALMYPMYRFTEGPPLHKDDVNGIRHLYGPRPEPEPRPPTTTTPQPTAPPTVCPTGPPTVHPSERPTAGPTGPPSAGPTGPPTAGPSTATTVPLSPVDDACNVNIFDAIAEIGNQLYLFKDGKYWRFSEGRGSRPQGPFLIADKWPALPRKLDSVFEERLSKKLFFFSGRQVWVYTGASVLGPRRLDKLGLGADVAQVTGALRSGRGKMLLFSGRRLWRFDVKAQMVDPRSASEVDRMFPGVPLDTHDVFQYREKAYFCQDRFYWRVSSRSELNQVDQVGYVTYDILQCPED

[8] = target: 72 kDa type IV collagenase (Homo sapiens, UniProt P08253); assay: Inhibition of human MMP2 by photoaffinity probe based assay
Chain of 72 kDa type IV collagenase (P08253 whole entry): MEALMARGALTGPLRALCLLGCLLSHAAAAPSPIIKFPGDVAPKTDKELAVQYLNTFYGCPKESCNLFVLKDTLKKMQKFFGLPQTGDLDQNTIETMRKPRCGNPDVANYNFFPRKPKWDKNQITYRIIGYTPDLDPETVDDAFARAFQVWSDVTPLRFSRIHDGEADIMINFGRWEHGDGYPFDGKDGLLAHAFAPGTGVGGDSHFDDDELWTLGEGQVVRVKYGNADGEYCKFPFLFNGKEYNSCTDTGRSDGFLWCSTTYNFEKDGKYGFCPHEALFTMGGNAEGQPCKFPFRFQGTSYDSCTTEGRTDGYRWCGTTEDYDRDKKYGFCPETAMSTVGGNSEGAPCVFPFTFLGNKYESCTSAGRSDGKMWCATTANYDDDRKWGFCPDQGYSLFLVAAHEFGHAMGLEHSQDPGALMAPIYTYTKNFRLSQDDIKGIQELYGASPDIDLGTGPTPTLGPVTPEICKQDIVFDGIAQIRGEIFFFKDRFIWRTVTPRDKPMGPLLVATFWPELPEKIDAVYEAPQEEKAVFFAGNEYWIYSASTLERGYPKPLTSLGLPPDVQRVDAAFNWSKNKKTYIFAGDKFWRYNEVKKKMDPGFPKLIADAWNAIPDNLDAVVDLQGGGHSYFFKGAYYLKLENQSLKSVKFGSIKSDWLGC

Compound: NC(CCc1ccccc1)P(=O)(O)CC(Cc1ccc(O)cc1)C(=O)O (stereo not given)
- Ki [1]: 54 nM
- Ki (Leucine aminopeptidase): 10 nM
- Ki [2]: 232 nM

Compound: CC(=O)N1CCC(CP(=O)(O)[C@H](C)N)(C(=O)N[C@@H](C)C(=O)O)CC1
- Ki [3]: 5.3 nM

Compound: CC(=O)N[C@H](CCP(=O)(O)CC(CCC[C@@H](N)C(=O)O)C(=O)O)C(=O)O (stereo not given in full)
- Ki [4]: 1500 nM

Compound: C[C@H](NC(=O)C1(CP(=O)(O)[C@H](C)N)CCCC1)C(=O)O
- Ki [3]: 4.6 nM

Compound: NC(CCc1ccccc1)P(=O)(O)CC(Cc1ccccc1)C(=O)O (stereo not given)
- Ki [1]: 302 nM
- Ki (Leucine aminopeptidase): 13 nM

Next, values leading:

- Ki [5]: 0.9 nM
Compound: CC[N+]1=C(/C=C/C=C/C=C2/N(CCCCCC(=O)NCCCOCCOCCOCCCNC(=O)[C@H](CCC(=O)O)NC(=O)[C@H](C)NC(=O)[C@H](Cc3cc(-c4ccc(-c5cccc(Cl)c5)cc4)no3)CP(=O)(O)c3ccc(Br)cc3)c3ccc4c(S(=O)(=O)O)cc(S(=O)(=O)O)cc4c3C2(C)C)C(C)(C)c2c1ccc1c(S(=O)(=O)[O-])cc(S(=O)(=O)O)cc21

- Ki (Collagenase 3): 1.6 nM
- Ki [6]: 1 nM
- Ki (Neutrophil collagenase): 0.6 nM
- Ki [7]: 2.6 nM
- Ki [8]: 0.5 nM
Compound: [3H]CC([3H])C(=O)NCCCOCCOCCOCCCNC(=O)[C@H](CO)NC(=O)[C@H](CC)NC(=O)[C@H](Cc1cc(-c2ccc(C3(C(F)(F)F)N=N3)cc2)no1)CP(=O)(O)c1ccccc1 (stereo not given in full)

- Ki [5]: 0.26 nM
Compound: C[C@H](NC(=O)[C@H](Cc1cc(-c2ccc(-c3cccc(Cl)c3)cc2)no1)CP(=O)(O)c1ccc(Br)cc1)C(=O)N[C@@H](CCC(=O)O)C(N)=O
